Assay results as given in ChEMBL document CHEMBL3351421, “Novel styryl-indoles as small molecule inhibitors of 25-hydroxyvitamin D-24-hydroxylase (CYP24A1): Synthesis and biological evaluation” (Eur J Med Chem, 2014).

molecular target: T1, 1,25-dihydroxyvitamin D(3) 24-hydroxylase, mitochondrial (Homo sapiens, UniProt Q07973); assay: Inhibition of N-terminally MBP-fused human CYP24A1 by cell-free assay
T1 sequence (Q07973 whole entry): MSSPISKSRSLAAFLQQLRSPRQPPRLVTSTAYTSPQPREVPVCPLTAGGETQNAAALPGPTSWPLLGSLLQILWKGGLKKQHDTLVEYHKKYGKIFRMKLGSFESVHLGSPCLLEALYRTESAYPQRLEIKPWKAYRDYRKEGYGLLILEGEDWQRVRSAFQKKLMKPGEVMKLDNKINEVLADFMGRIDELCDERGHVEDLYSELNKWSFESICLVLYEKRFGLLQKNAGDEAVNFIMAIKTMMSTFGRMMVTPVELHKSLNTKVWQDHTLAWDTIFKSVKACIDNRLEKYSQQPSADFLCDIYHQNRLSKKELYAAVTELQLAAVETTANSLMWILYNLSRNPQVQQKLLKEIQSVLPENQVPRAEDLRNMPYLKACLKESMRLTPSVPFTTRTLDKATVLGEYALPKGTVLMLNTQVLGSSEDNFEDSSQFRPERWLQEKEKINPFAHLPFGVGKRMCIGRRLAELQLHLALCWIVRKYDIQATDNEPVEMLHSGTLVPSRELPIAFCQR

Row | IC50 | Ki | SMILES
1 | 360 nM | 26 nM | C(=C\c1cccc2c1ccn2CCCn1ccnc1)/c1ccccc1
2 | 440 nM | 31 nM | COc1cc(/C=C/c2cccc3c2ccn3CCCn2ccnc2)cc(OC)c1
3 | 200 nM | 14 nM | C(=C\c1cccc2c1ccn2CCCCn1ccnc1)/c1ccccc1
4 | 190 nM | 14 nM | COc1cc(/C=C/c2cccc3c2ccn3CCCCn2ccnc2)cc(OC)c1
5 | 520 nM | 37 nM | C(=C\c1ccc2c(ccn2CCCn2ccnc2)c1)/c1ccccc1
6 | 520 nM | 37 nM | C(=C\c1ccc2c(ccn2CCCCn2ccnc2)c1)/c1ccccc1
7 | 4800 nM | 340 nM | Cc1ccc(S(=O)(=O)NCCCn2ccc3c(/C=C/c4ccccc4)cccc32)cc1
8 | 10400 nM | 730 nM | COc1cc(/C=C/c2cccc3c2ccn3CCCNS(=O)(=O)c2ccc(C)cc2)cc(OC)c1
9 | 3300 nM | 230 nM | Cc1ccc(S(=O)(=O)NCCCCn2ccc3c(/C=C/c4ccccc4)cccc32)cc1
10 | 10500 nM | 740 nM | COc1cc(/C=C/c2cccc3c2ccn3CCCCNS(=O)(=O)c2ccc(C)cc2)cc(OC)c1
11 | 7600 nM | 540 nM | O=S(OCCCn1ccc2c(/C=C/c3ccccc3)cccc21)c1ccccc1 (stereo unspecified)
12 | 9000 nM | 640 nM | Cc1ccc(S(=O)(=O)OCCCn2ccc3c(/C=C/c4ccccc4)cccc32)cc1
13 | 16900 nM | 1190 nM | COc1cc(/C=C/c2cccc3c2ccn3CCCOS(=O)(=O)c2ccc(C)cc2)cc(OC)c1
